Patent US11000033B2, “Ketone or oxime compound, and herbicide” (NISSAN CHEMICAL CORPORATION, priority 2014, dated 2021)

What was measured:
Assay type in all cases: in vivo
Scirpus juncoides = assay: Test Example 1: herbicidal activity, application before weed generation in submerged conditions (symbol B); conditions: application herbicide amount 320 g/ha
Procedure, shortened: (§1)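 Flooded alluvial soil (4 cm water) was mixed-sown with the three weed species, and 2.5-leaf rice seedlings were transplanted. On sowing day, a water-diluted emulsion at a predetermined rate was applied to the water surface. After 3 weeks in a 25–30 °C greenhouse, effect was scored 0–5.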

Monochoria vaginalis = assay: Test Example 1: herbicidal activity, application before weed generation in submerged conditions (symbol C); conditions: application herbicide amount 320 g/ha
Procedure, shortened: as §1

Leptochloa chinensis = assay: Test Example 3: herbicidal effect by foliage application, Wagner pot (symbol D); conditions: application herbicide amount 320 g/ha
Procedure, shortened: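 Steps: fill pot with alluvial soil; add water to 0.1–0.5 cm depth; sow weed and rice seed; grow 14 days at 25–30 °C; spray diluted emulsion over the leaves; rate effect after 3 weeks.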

Setaria viridis [1] = assay: Test Example 4: herbicidal effect by soil treatment (symbol G); conditions: application herbicide amount 320 g/ha
Procedure, shortened: (§2)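 Seeds were sown in sterilized diluvial soil, covered with about 1.5 cm of soil, and the soil surface was sprayed with a water-diluted emulsion of the compound at a predetermined rate. Plants grew in a greenhouse at 25° C. to 30° C.; effects were scored visually 3 weeks after application.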

[2] = system: Echinochloa crus-galli var. crus-galli; assay: Test Example 4: herbicidal effect by soil treatment (symbol H); conditions: application herbicide amount 320 g/ha
Procedure, shortened: as §2

Lolium multiflorum Lam. = assay: Test Example 4: herbicidal effect by soil treatment (symbol K); conditions: application herbicide amount 320 g/ha
Procedure, shortened: as §2

Apera spica-venti = assay: Test Example 4: herbicidal effect by soil treatment (symbol L); conditions: application herbicide amount 320 g/ha
Procedure, shortened: as §2

Amaranthus retroflexus = assay: Test Example 4: herbicidal effect by soil treatment (symbol N); conditions: application herbicide amount 320 g/ha
Procedure, shortened: as §2

Stellaria media [3] = assay: Test Example 4: herbicidal effect by soil treatment (symbol P); conditions: application herbicide amount 320 g/ha
Procedure, shortened: as §2

corn = assay: Test Example 4: effect on crop by soil treatment (symbol c); conditions: application herbicide amount 320 g/ha
Procedure, shortened: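 Grown at 25° C. to 30° C. in a greenhouse, the crops came from seed sown spot-wise in sterilized diluvial soil under roughly 1.5 cm of covering soil.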

rapeseed [4] = assay: Test Example 4: effect on crop by soil treatment (symbol g); conditions: application herbicide amount 320 g/ha
Procedure, shortened: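 Seeds were sown in spots on sterilized diluvial soil in a plastic box and covered with about 1.5 cm of soil. Plants were then grown in a greenhouse at 25° C. to 30° C.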

Setaria viridis [5] = assay: Test Example 5: herbicidal effect by foliage application, plastic box (symbol G); conditions: 320 g/ha, 3 weeks after application
Procedure, shortened: (§3)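 Effect is rated 3 weeks after a foliar spray of water-diluted emulsion concentrate at a predetermined herbicide amount. Plants had grown 14 days in a 25° C. to 30° C. greenhouse from seed in sterilized diluvial soil.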

[6] = system: Echinochloa crus-galli var. crus-galli; assay: Test Example 5: herbicidal effect by foliage application, plastic box (symbol H); conditions: 320 g/ha, 3 weeks after application
Procedure, shortened: as §3

Alopecurus myosuroides = assay: Test Example 5: herbicidal effect by foliage application, plastic box (symbol J); conditions: 320 g/ha, 3 weeks after application
Procedure, shortened: as §3

Stellaria media [7] = assay: Test Example 5: herbicidal effect by foliage application, plastic box (symbol P); conditions: 320 g/ha, 3 weeks after application
Procedure, shortened: as §3

Galium spurium = assay: Test Example 5: herbicidal effect by foliage application, plastic box (symbol Q); conditions: 320 g/ha, 3 weeks after application
Procedure, shortened: as §3

wheat = assay: Test Example 5: effect on crop by foliage application, plastic box (symbol e); conditions: 320 g/ha, 3 weeks after application
Procedure, shortened: (§4)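 In a plastic box 7 cm deep filled with sterilized diluvial soil, seeds of crops and weeds such as Digitaria ciliaris, Avena fatua and Amaranthus retroflexus are sown in spots and covered with about 1.5 cm of soil before greenhouse growth at 25–30° C.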

rapeseed [8] = assay: Test Example 5: effect on crop by foliage application, plastic box (symbol g); conditions: 320 g/ha, 3 weeks after application
Procedure, shortened: as §4

Row | Compound | Herbicidal effect grade, B: Scirpus juncoides (Scirpus juncoides) | Herbicidal effect grade, C: Monochoria vaginalis (Monochoria vaginalis) | herbicidal effect on D (Leptochloa chinensis), grade 0-5 (Leptochloa chinensis) | G (Setaria viridis) herbicidal effect grade (Setaria viridis [1]) | H (Echinochloa crus-galli var. crus-galli) herbicidal effect grade [2] | K (Lolium multiflorum Lam.) herbicidal effect grade (Lolium multiflorum Lam.) | L (Apera spica-venti) herbicidal effect grade (Apera spica-venti) | N (Amaranthus retroflexus) herbicidal effect grade (Amaranthus retroflexus) | P (Stellaria media) herbicidal effect grade (Stellaria media [3]) | c (corn) effect on crop grade (corn) | g (rapeseed) effect on crop grade (rapeseed [4]) | G: Setaria viridis, herbicidal effect grade (Setaria viridis [5]) | H: Echinochloa crus-galli var. crus-galli, herbicidal effect grade [6] | J: Alopecurus myosuroides, herbicidal effect grade (Alopecurus myosuroides) | P: Stellaria media, herbicidal effect grade (Stellaria media [7]) | Q: Galium spurium, herbicidal effect grade (Galium spurium) | e: wheat, effect on crop grade (wheat) | g: rapeseed, effect on crop grade (rapeseed [8]) | other results
1 | CSCCON=C(C)CC1CC(O)=C(c2c(C)cc(C)cc2C)C1=O (stereo not shown) [1-029] | 0 (Herbicidal ratio of 5% or lower (almost no effect)) | 0 (Herbicidal ratio of 5% or lower (almost no effect)) | 5 (Herbicidal ratio of 90% or more (almost completely withered)) | 5 (Herbicidal ratio of 90% or more (almost completely withered)) | 5 (Herbicidal ratio of 90% or more (almost completely withered)) | 5 (Herbicidal ratio of 90% or more (almost completely withered)) | 5 (Herbicidal ratio of 90% or more (almost completely withered)) | 0 (Herbicidal ratio of 5% or lower (almost no effect)) | 0 (Herbicidal ratio of 5% or lower (almost no effect)) | 0 (Herbicidal ratio of 5% or lower (almost no effect)) | 3 (Herbicidal ratio of 40% or higher and lower than 70%) | 5 (Herbicidal ratio of 90% or more (almost completely withered)) | 5 (Herbicidal ratio of 90% or more (almost completely withered)) | 5 (Herbicidal ratio of 90% or more (almost completely withered)) | 3 (Herbicidal ratio of 40% or higher and lower than 70%) | 3 (Herbicidal ratio of 40% or higher and lower than 70%) | 5 (Herbicidal ratio of 90% or more (almost completely withered)) | 4 (Herbicidal ratio of 70% or higher and lower than 90%) | 
2 | COCCOC1=C(c2c(C)cc(C)cc2C)C(=O)C(CC(C)=NOC)C1 (stereo not shown) [1-037] | 0 (Herbicidal ratio of 5% or lower (almost no effect)) | 0 (Herbicidal ratio of 5% or lower (almost no effect)) | 0 (Herbicidal ratio of 5% or lower (almost no effect)) | 0 (Herbicidal ratio of 5% or lower (almost no effect)) | 0 (Herbicidal ratio of 5% or lower (almost no effect)) | 0 (Herbicidal ratio of 5% or lower (almost no effect)) | 0 (Herbicidal ratio of 5% or lower (almost no effect)) | 0 (Herbicidal ratio of 5% or lower (almost no effect)) | 0 (Herbicidal ratio of 5% or lower (almost no effect)) | 0 (Herbicidal ratio of 5% or lower (almost no effect)) | 0 (Herbicidal ratio of 5% or lower (almost no effect)) | 0 (Herbicidal ratio of 5% or lower (almost no effect)) | 0 (Herbicidal ratio of 5% or lower (almost no effect)) | 0 (Herbicidal ratio of 5% or lower (almost no effect)) |  | 0 (Herbicidal ratio of 5% or lower (almost no effect)) | 0 (Herbicidal ratio of 5% or lower (almost no effect)) | 0 (Herbicidal ratio of 5% or lower (almost no effect)) | 
3 | CON=C(C)CC1CC(OC(=O)COc2ccc(Cl)cc2)=C(c2c(C)cc(C)cc2C)C1=O (stereo not shown) [1-044] | 5 (Herbicidal ratio of 90% or more (almost completely withered)) | 4 (Herbicidal ratio of 70% or higher and lower than 90%) | 5 (Herbicidal ratio of 90% or more (almost completely withered)) | 5 (Herbicidal ratio of 90% or more (almost completely withered)) | 5 (Herbicidal ratio of 90% or more (almost completely withered)) | 5 (Herbicidal ratio of 90% or more (almost completely withered)) | 5 (Herbicidal ratio of 90% or more (almost completely withered)) | 4 (Herbicidal ratio of 70% or higher and lower than 90%) |  | 4 (Herbicidal ratio of 70% or higher and lower than 90%) | 4 (Herbicidal ratio of 70% or higher and lower than 90%) | 5 (Herbicidal ratio of 90% or more (almost completely withered)) | 5 (Herbicidal ratio of 90% or more (almost completely withered)) | 5 (Herbicidal ratio of 90% or more (almost completely withered)) | 0 (Herbicidal ratio of 5% or lower (almost no effect)) | 0 (Herbicidal ratio of 5% or lower (almost no effect)) | 5 (Herbicidal ratio of 90% or more (almost completely withered)) | 4 (Herbicidal ratio of 70% or higher and lower than 90%) | 
4 | CON=C(C)CC1CC(OC(=O)COc2ccc(Cl)cc2Cl)=C(c2c(C)cc(C)cc2C)C1=O (stereo not shown) [1-075] | 4 (Herbicidal ratio of 70% or higher and lower than 90%) |  | 5 (Herbicidal ratio of 90% or more (almost completely withered)) | 5 (Herbicidal ratio of 90% or more (almost completely withered)) | 5 (Herbicidal ratio of 90% or more (almost completely withered)) | 5 (Herbicidal ratio of 90% or more (almost completely withered)) | 5 (Herbicidal ratio of 90% or more (almost completely withered)) | 5 (Herbicidal ratio of 90% or more (almost completely withered)) | 0 (Herbicidal ratio of 5% or lower (almost no effect)) | 5 (Herbicidal ratio of 90% or more (almost completely withered)) |  |  |  |  |  |  |  |  | G: Setaria viridis, herbicidal effect (criteria 0-5) (Setaria viridis [5]): 5 (Herbicidal ratio of 90% or more (almost completely withered)); H: Echinochloa crus-galli var. crus-galli, herbicidal effect (criteria 0-5) [6]: 5 (Herbicidal ratio of 90% or more (almost completely withered)); J: Alopecurus myosuroides, herbicidal effect (criteria 0-5) (Alopecurus myosuroides): 5 (Herbicidal ratio of 90% or more (almost completely withered)); P: Stellaria media, herbicidal effect (criteria 0-5) (Stellaria media [7]): 1 (Herbicidal ratio of 5% or higher and lower than 20%); Q: Galium spurium, herbicidal effect (criteria 0-5) (Galium spurium): 0 (Herbicidal ratio of 5% or lower (almost no effect)); e: wheat, effect on crop (criteria 0-5) (wheat): 5 (Herbicidal ratio of 90% or more (almost completely withered))
